This is an account of results in patent US20060293395A1, “Methods for treating a mammal before, during and after cardiac arrest” (priority 2004, published 2006).

The structures appear in SMILES notation. “Also recorded” adds a separate entry of the source.

Assay [1] has as its system Male Sprague-Dawley rats. The assay is described as follows: Example 2: dobutamine vs levosimendan for post-resuscitation myocardial failure, 8 min untreated VF + 6 min precordial compression. It counts as in vivo, rat. On the procedure: The animals were anesthetized following intraperitoneal injection of 45 mg kg^−1 pentobarbital. […] No anesthetic agent was administrated during the 30 minute interval prior to inducing cardiac arrest.
Pressures were measured with a high sensitivity pressure transducer (Model 42584-01; Abbott Critical Care System, North Chicago, Ill.). The optimally damped frequency response of the system was 22 Hz. […] Guided by pressure monitoring, the catheter was slowly withdrawn into the right atrium. Right atrial pressure was measured with reference to the mid-chest with another high sensitivity pressure transducer (Abbott model 42584-01). This catheter also served as an injection site for the thermal tracer. A 4 F polyethylene catheter (model C-PMS401J; Cook Critical Care, Bloomington, Ind.) was advanced through the right external jugular vein into the right atrium. A precurved guide wire supplied with the catheter was then advanced through the catheter into the right ventricle until an endocardial electrogram was observed. Another 23-gauge polyethylene catheter (PE 50) was advanced through the left femoral artery into the abdominal aorta for measurement of aortic pressure with the same Abbott high sensitivity transducer and also for sampling arterial blood. […] The thermocouple provided for measurements of blood temperature and thermodilution cardiac output. […] An additional PE 50 catheter was advanced into right femoral vein for drug infusion. EKG lead II was continuously recorded.
Experimental Procedure: A total of 15 animals were investigated. The investigators were blinded to the intervention until immediately prior to inducing VF, at which time the principal investigator opened a sealed envelope for assignment to one of three groups: (1) levosimendan (2) dobutamine or (3) saline placebo. This allowed time for preparation of a fresh dilution of the selected drug. […] Current flow was continued for 3 minutes to prevent spontaneous defibrillation as previously described (Von Planta I, Weil MH. Cardiopulmonary resuscitation in the rat. J Appl Physiol. 1988;65(6):2641-2647). Ventilation was discontinued after onset of VF. Precordial compression was begun with a pneumatically driven mechanical chest compressor after 8 minutes of untreated VF and continued for 6 minutes. These methods have been extensively exercised and have been well-documented (see Von Plata I (supra)) and Sun SJ, Weil MH, Tang W, et al. Combined effects of buffer and adrenergic agent on postresuscitation myocardial function. J Pharm Exp Ther. 1999;291 :773-777). Coincident with the start of precordial compression, the animals were mechanically ventilated. Tidal volume was established at 6.5 ml per kg animal weight, a frequency of 100 min^−1, and on a FiO2 of 1.0.

The test system of assay [2] is male domestic pigs. Put plainly: Example 3: dobutamine vs levosimendan in the porcine model of cardiac arrest and cardiac resuscitation. In kind it is in vivo, pig. As to the method: Experimental Preparation: The experiments were performed in the porcine model of cardiac arrest and cardiac resuscitation which has been extensively exercised. (21,22). […] Anesthesia was initiated by intramuscular injection of ketamine (20 mg kg^−1) and was completed by ear vein injection of sodium pentobarbital (30 mg kg^−1). Additional 8 mg kg^−1 doses of sodium pentobarbital were injected to maintain anesthesia at intervals of one hour. A cuffed endotracheal tube was advanced into the trachea. Animals were mechanically ventilated with a volume of 15 mL kg^−1, peak airway flow of 40 L min^−1, and FiO2 of 0.2 with the aid of a volume-controlled ventilator (Model MA-1, Puritan-Bennett, Carlsbad, Calif.). End-tidal PCO2 (PETCO2) was monitored with an infrared analyzer (Model 01R-7101A, Nihon Kohden Corp, Tokyo, Japan). Respiratory frequency was adjusted to maintain PETCO2 between 35 and 40 mmHg. Blood temperature was maintained at 37±0.5° C. with the aid of infrared heating lamps, as required.
For the measurement of left ventricular functions, a 5.5/7.5 MHz biplane with pulse-wave Doppler transesophageal echocardiographic tranducer with 4-way flexure (Model 21363A, Hewlett-Packard Co. Medical Products Group, Andover, Mass.) was advanced from the incisor teeth into the esophagus for a distance of approximately 40 cm. For the measurement of aortic pressure, a fluid filled catheter was advanced from the surgically exposed left femoral artery into the thoracic aorta. For measurements of right atrial and pulmonary arterial pressures, blood temperature and cardiac output, a 7-French, pentalumen, thermodilution-tipped catheter was advanced from the surgically exposed left femoral vein and flow-directed into the pulmonary artery. For inducing VF, a 5-French pacing catheter (EP Techologies, Inc., Mountain View, Calif.) was advanced from the surgically exposed right cephalic vein into the right ventricle. […] This catheter was then looped laterally and advanced inferiorly for a distance of 5 cm into the great cardiac vein for sampling of coronary venous blood. The electrocardiographic (EKG) lead II was continuously recorded.
Experimental procedure: A total 15 animals were investigated. […] Cardiac arrest was induced with 1 to 2 mA AC delivered to the endocardium of the right ventricle. Mechanical ventilation was discontinued after onset of VF. At the end of a 7-minute interval of untreated VF, precordial compression (PC) was started with a pneumatic piston-driven chest compressor (Thumper, Model 1000, Michigan Instruments, Grand Rapids, Mich.). Coincident with the start of PC, the animal was mechanically ventilated with a tidal volume of […] and FiO2 of 1.0. […] The compression force was adjusted to decrease the anterior-posterior diameter of the chest by 25%. After 5 minutes of PC, defibrillation was attempted with a 150 J biphasic waveform shock delivered between the right infraclavicular area and the cardiac apex. If an organized cardiac rhythm with mean aortic pressure of more than 60 mm Hg persisted for an interval of 5 minutes or more, the animal was regarded as successfully resuscitated. At 10 minutes after restoration of spontaneous circulation (ROSC), one of the three interventions was begun. […] Levosimendan diluted in physiological salt solution was administered in a loading dose of 20 μg kg^−1, infused over 10 minutes, followed by infusion of 0.4 μg kg^−1 min^−1 also in physiologic salt solution for a total duration of 230 minutes.

For assay [3], the system named is Male Sprague-Dawley rats. The assay is described as follows: Example 1: post-resuscitation myocardial dysfunction after VF cardiac arrest, drug infusion for 240 min post-resuscitation.
Assay [4] has as its system male domestic pigs. Put plainly: Levosimendan on post-resuscitation myocardial function after beta-adrenergic blockade (propranolol). It counts as in vivo, pig. As to the method: Anesthesia was initiated by intramuscular injection of ketamine (20 mg/kg) and completed by ear vein injection of sodium pentobarbital (30 mg/kg). Additional doses of sodium pentobarbital (8 mg/kg) were injected to maintain anesthesia at intervals of one hour. A cuffed endotracheal tube was advanced into the trachea. Animals were mechanically ventilated with a volume-controlled ventilator (Model MA-1, Puritan-Bennett, Carlsbad, Calif.) with a tidal volume of 15 mL/kg, peak flow of 40 L/min, and FiO2 of 0.21. End-tidal PCO2 (ETCO2) was monitored with an infrared analyzer (Model 01R-7101A, Nihon Kohden Corp, Tokyo, Japan). Respiratory frequency was adjusted to maintain PETCO2 between 35 and 40 mm Hg.
For the measurement of left ventricular functions, a 5.5/7.5 […] biplane with Doppler transesophageal echocardiographic transducer with 4-way flexure (Model 21363A, Hewlett-Packard Co., Medical Products Group, Andover, Mass.) was advanced from the incisor teeth into the esophagus for a distance of approximately 35 cm. For the measurement of aortic pressure, a fluid-filled catheter was advanced from the left femoral artery into the thoracic aorta. For the measurements of right atrial, pulmonary arterial pressures and blood temperature, a 7-French, pentalumen, thermodilution-tipped catheter was advanced from the left femoral vein and flow-directed into the pulmonary artery. A 7-French catheter was advanced from the left cephalic vein into the great cardiac vein for the measurement of great cardiac vein blood gases and lactate. For inducing VF, a 5-French pacing catheter (EP Technologies, Inc., Mountain View, Calif.) was advanced from the right cephalic vein into the right ventricle.
The investigators were blinded to the randomization. Cardiac arrest was induced with 1 to 2 mA AC delivered to the endocardium of the right ventricle. Mechanical ventilation was discontinued after onset of VF. At the end of the 7-min interval of untreated VF, precordial compression was started with a pneumatic piston-driven chest compressor (Thumper, Model 1000, Michigan Instruments, Grand Rapids, Mich.). […] The compression force was adjusted to decrease the anterior-posterior diameter of the chest by 25%. After 5 min of precordial compression, defibrillation was attempted with a 150 J biphasic waveform shock delivered between the right infraclavicular area and the cardiac apex. If an organized cardiac rhythm with mean aortic pressure of more than 60 mm Hg persisted for an interval of 5 min or more, the animal was regarded as successfully resuscitated. All animals had restoration of spontaneous circulation (ROSC) after electrical defibrillation, and were then randomized to three treatment groups: (1) propranolol (0.1 mg/kg bolus at 6 min of VF); (2) propranolol plus levosimendan (at 10 min after post resuscitation, 20 μg/kg over 10 min followed by 0.4 μg/kg/min for 220 min); and (3) equal volumes of saline as placebo.
Measurements were obtained over an interval of 4 hours following resuscitation. After 4 hours, animals were euthanized by intravenous injection of 150 mg kg^−1 pentobarbital. Autopsy was performed to document injuries to the bony thorax and the thoracic and abdominal viscera.

Where [5] appears, read: compared to saline placebo / control (FIG. 27).

Turning to `CC(CCc1ccc(O)cc1)NCCc1ccc(O)c(O)c1` (centres unmarked) [Dobutamine], the heart rate result in the assay on Male Sprague-Dawley rats [1] (after administration, post-resuscitation) is listed as “moderate increase in heart rate”; with male domestic pigs [2] (among the three groups) it was “did not differ”; in the assay with Male Sprague-Dawley rats [3] (post-resuscitation (FIG. 5)) it was “increases in heart rate of borderline significance”. Further, the “mean arterial pressure (MAP)” value with Male Sprague-Dawley rats [1] (between the three groups) is listed as “no significant differences”. Further, the duration of survival result in the assay on Male Sprague-Dawley rats [1] (observed over 72 hours, least with saline placebo (FIG. 15)) is given as “intermediate”. Moreover, the cardiac index entry is listed as “significant increases in cardiac index” in the assay with Male Sprague-Dawley rats [1] (post-resuscitation (FIG. 13)) and “comparable increases in cardiac index” with Male Sprague-Dawley rats [3] (post-resuscitation (FIG. 6)). In the assay on Male Sprague-Dawley rats [1] (vs saline placebo (FIG. 14)), the dP/dt40 entry was “Significantly greater”. In addition, in the assay on Male Sprague-Dawley rats [1] (vs saline placebo (FIG. 14)), the “−dP/dt” value is “Significantly greater”. Moreover, in the assay on male domestic pigs [2] (between levosimendan and dobutamine), the arterial pressure result was “no differences in arterial pressure”. In the assay on male domestic pigs [2] (vs saline placebo (FIG. 16)), the cardiac output result is listed as “Significantly greater cardiac output”. The arterial pressures result with Male Sprague-Dawley rats [3] (among the three groups, at PR10 and after administration of the drugs (FIG. 4)) was “No significant differences”. In addition, in the assay with Male Sprague-Dawley rats [3] (post-resuscitation (FIG. 10)), the “lusitropic (relaxation) effect” value is “more profound lusitropic (relaxation) effect”. In the assay on Male Sprague-Dawley rats [3] (post-resuscitation, initially (FIG. 7)), the stroke volume result is on record as “significantly greater stroke volumes”.
For `CC(C)NCC(O)COc1cccc2ccccc12` (centres unmarked) [propranolol], in the assay on male domestic pigs [4] (5 min after resuscitation (FIG. 26)), the “postresuscitation ST segment elevation in ECG limb lead 2” value was “lesser; also recorded: significantly improved”. Further, in the assay on male domestic pigs [4] (5 min interval after ROSC (FIG. 26)), the “number of postresuscitation premature ventricular beats” value was “significantly lesser number; also recorded: significantly improved”. In the assay on male domestic pigs [4] (setting [5]), the FAC result is recorded as “significantly increased; also recorded: significantly greater” and the “Postresuscitation ejection fractions (EF)” value is given as “significantly increased; also recorded: significantly greater”. Besides, in the assay with male domestic pigs [4] (propranolol 0.1 mg/kg bolus at 6 min of VF), the “total energies of electrical shocks” value was “significantly lesser total energies”. Besides, in the assay on male domestic pigs [4] (propranolol 0.1 mg/kg bolus at 6 min of VF (FIG. 26)), the “number of electrical shocks” value was “significantly smaller number; also recorded: significantly improved”.
